According to patent US11203601B2, “Tricyclic compounds as glycogen synthase kinase 3 (GSK3) inhibitors and uses thereof” (The Broad Institute, Inc., priority 2017, dated 2021):

Assays:
Assay in all cases: Carna kinome panel
Assay type in all cases: biochemical
Details in all cases: read-out: % Inhibition at 10 μM of the test compound
PKCβ1 = PKCβ1 (Homo sapiens (Human), UniProt P05771)
TAOK2 = TAOK2 (Homo sapiens (Human), UniProt Q9UL54)
MARK4 = MARK4 (Homo sapiens (Human), UniProt Q96L34)
RET(M918T) = RET(M918T) (Homo sapiens (Human), UniProt P07949, M918T)
MAP2K3_Cascade = MAP2K3_Cascade (Homo sapiens (Human), UniProt P46734)
SGK = SGK (Homo sapiens (Human), UniProt O00141)
RET(S891A) = RET(S891A) (Homo sapiens (Human), UniProt P07949, S891A)
EGFR(T790M/L858R) = EGFR(T790M/L858R) (Homo sapiens (Human), UniProt P00533, L858R/T790M)
Chain of EGFR(T790M/L858R) (P00533 25-1210 T790M/L858R): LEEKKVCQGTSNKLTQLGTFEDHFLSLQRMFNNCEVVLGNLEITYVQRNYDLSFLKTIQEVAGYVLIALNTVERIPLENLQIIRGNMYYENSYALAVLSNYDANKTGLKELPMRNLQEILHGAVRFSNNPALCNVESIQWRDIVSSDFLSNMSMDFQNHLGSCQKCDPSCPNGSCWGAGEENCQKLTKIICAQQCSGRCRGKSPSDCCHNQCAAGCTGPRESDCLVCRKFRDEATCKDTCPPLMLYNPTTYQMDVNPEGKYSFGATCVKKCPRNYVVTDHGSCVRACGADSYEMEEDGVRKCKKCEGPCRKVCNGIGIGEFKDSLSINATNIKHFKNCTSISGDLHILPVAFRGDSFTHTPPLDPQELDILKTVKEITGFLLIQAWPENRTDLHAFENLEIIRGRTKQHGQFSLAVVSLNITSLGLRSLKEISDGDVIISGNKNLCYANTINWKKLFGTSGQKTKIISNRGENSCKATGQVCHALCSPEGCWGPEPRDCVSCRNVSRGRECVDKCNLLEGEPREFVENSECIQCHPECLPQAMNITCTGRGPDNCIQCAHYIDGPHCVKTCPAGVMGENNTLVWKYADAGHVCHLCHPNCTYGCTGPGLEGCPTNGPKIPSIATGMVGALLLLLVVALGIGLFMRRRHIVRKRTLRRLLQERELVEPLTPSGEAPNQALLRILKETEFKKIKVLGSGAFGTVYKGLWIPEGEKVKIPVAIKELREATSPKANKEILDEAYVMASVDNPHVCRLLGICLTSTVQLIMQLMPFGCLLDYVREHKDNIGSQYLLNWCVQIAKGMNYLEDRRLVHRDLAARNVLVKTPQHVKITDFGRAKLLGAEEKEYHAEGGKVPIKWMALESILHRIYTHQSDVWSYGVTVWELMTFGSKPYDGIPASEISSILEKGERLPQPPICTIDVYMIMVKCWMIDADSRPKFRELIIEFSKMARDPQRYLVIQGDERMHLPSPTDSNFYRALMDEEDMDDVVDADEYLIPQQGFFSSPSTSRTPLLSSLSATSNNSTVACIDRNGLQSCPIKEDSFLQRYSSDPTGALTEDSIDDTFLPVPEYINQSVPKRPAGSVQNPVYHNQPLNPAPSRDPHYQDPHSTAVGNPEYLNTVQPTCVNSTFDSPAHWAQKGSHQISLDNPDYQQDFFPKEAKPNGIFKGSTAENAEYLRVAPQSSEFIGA

MER = MER (Homo sapiens (Human), UniProt Q12866)
PIM2 = PIM2 (Homo sapiens (Human), UniProt Q9P1W9)
CaMK1δ = CaMK1δ (Homo sapiens (Human), UniProt Q8IU85)
FGFR3(K650M) = FGFR3(K650M) (Homo sapiens (Human), UniProt P22607, K650M)
FRK = FRK (Homo sapiens (Human), UniProt P42685)
CaMK4 = CaMK4 (Homo sapiens (Human), UniProt Q16566)
SRC = SRC (Homo sapiens (Human), UniProt P12931)
EPHA4 = EPHA4 (Homo sapiens (Human), UniProt P54764)
FLT4 = FLT4 (Homo sapiens (Human), UniProt P35916)
Chain of FLT4 (P35916 25-1363): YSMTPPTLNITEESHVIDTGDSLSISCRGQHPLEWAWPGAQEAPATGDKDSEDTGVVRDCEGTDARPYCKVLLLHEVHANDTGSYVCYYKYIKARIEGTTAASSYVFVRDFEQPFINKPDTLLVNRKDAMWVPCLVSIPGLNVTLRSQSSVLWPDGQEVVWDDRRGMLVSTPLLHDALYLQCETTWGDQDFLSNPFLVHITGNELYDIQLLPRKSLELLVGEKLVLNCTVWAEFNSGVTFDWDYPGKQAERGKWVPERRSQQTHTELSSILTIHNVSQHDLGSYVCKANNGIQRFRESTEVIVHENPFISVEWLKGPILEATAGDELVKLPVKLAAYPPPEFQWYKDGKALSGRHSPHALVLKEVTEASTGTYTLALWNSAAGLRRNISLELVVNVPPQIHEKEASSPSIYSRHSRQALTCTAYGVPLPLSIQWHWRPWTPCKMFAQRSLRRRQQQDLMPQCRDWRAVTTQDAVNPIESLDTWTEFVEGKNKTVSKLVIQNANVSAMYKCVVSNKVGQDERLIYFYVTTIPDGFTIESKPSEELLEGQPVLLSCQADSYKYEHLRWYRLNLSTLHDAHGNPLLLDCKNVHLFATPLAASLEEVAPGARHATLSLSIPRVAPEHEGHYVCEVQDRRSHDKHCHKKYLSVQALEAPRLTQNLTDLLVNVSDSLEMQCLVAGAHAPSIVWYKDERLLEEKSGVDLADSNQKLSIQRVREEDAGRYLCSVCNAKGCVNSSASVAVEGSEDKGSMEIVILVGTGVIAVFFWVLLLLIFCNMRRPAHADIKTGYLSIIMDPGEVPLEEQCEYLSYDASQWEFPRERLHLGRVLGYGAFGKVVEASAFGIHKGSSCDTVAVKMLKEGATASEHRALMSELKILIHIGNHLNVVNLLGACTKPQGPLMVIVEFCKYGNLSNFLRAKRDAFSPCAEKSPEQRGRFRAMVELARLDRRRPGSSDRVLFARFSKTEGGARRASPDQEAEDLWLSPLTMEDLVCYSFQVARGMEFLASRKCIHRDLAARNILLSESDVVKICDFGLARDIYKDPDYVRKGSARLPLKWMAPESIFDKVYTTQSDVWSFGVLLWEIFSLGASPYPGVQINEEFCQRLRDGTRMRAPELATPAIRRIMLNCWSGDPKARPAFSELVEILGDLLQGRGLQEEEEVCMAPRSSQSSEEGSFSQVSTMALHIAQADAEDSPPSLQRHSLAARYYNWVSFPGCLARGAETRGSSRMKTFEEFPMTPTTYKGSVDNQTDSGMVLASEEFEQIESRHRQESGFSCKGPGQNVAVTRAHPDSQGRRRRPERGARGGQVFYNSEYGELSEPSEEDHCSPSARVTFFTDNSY

PDGFRα(T674I) = PDGFRα(T674I) (Homo sapiens (Human), UniProt P16234, T674I)
RSK4 = RSK4 (Homo sapiens (Human), UniProt Q9UK32)
CDC2/CycB1 = CDC2/CycB1 (Homo sapiens (Human), UniProt P06493)
PIM1 = PIM1 (Homo sapiens (Human), UniProt P11309)
MAP4K2 = MAP4K2 (Homo sapiens (Human), UniProt Q12851)
EPHA2 = EPHA2 (Homo sapiens (Human), UniProt P29317)
Chain of EPHA2 (P29317 24-976): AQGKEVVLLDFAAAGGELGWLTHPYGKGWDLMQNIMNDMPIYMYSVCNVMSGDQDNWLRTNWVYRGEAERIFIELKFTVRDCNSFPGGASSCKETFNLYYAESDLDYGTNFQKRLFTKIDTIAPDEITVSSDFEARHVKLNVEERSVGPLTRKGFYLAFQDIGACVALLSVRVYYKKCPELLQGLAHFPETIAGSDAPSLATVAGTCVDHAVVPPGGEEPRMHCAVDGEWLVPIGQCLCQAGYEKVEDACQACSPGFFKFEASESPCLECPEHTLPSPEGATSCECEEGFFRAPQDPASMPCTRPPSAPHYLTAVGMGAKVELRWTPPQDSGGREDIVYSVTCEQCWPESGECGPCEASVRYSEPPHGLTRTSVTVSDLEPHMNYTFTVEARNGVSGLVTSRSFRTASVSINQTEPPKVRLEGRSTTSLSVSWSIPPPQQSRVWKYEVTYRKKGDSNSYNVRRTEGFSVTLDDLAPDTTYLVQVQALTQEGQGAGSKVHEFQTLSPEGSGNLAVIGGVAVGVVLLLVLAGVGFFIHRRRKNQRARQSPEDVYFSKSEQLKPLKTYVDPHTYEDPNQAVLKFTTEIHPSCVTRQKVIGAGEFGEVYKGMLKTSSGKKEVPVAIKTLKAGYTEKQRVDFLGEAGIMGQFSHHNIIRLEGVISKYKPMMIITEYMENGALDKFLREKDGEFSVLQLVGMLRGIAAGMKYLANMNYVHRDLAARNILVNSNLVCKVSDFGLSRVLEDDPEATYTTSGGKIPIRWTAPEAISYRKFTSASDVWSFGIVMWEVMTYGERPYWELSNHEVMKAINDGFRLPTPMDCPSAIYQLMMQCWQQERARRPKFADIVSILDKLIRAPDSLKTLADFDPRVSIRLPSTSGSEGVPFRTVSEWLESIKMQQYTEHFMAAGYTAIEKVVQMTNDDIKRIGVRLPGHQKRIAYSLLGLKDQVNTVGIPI

DYRK2 = DYRK2 (Homo sapiens (Human), UniProt Q92630)
AurA/TPX2 = AurA/TPX2 (Homo sapiens (Human), UniProt O14965)
WNK3 = WNK3 (Homo sapiens (Human), UniProt Q9BYP7)
TRKC = TRKC (Homo sapiens (Human), UniProt Q16288)
Chain of TRKC (Q16288 32-839): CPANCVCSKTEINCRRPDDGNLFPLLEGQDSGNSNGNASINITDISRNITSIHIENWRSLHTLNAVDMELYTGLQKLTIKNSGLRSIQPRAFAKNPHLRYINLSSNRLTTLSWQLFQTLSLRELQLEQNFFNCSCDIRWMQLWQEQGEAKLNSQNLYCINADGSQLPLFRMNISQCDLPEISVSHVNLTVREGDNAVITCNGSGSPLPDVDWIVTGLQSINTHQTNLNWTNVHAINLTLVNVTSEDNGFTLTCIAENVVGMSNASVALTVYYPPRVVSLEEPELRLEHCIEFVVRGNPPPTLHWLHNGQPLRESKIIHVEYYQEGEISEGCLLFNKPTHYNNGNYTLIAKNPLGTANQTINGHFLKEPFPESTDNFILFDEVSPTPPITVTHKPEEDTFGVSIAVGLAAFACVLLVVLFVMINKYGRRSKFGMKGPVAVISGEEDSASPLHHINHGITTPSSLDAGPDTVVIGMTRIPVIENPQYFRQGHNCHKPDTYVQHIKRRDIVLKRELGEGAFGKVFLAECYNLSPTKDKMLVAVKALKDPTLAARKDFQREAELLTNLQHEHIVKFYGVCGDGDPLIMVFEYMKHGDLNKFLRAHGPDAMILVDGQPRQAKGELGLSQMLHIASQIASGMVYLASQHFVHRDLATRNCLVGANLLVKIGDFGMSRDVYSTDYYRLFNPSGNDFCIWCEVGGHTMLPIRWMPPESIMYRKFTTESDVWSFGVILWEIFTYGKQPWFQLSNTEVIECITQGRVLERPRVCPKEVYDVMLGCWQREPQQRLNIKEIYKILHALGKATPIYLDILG

MST4 = MST4 (Homo sapiens (Human), UniProt Q9P289)
MAPKAPK 5 = MAPKAPK 5 (Homo sapiens (Human), UniProt Q8IW41)
EPHA3 = EPHA3 (Homo sapiens (Human), UniProt P29320)
ITK = ITK (Homo sapiens (Human), UniProt Q08881)
JAK1 = JAK1 (Homo sapiens (Human), UniProt P23458)
MLK2_ Cascade = MLK2_ Cascade (Homo sapiens (Human), UniProt Q02779)
WNK2 = WNK2 (Homo sapiens (Human), UniProt Q9Y3S1)
BRSK2 = BRSK2 (Homo sapiens (Human), UniProt Q8IWQ3)
MAP2K4_Cascade = MAP2K4_Cascade (Homo sapiens (Human), UniProt P45985)
EML4-ALK = EML4-ALK (Homo sapiens (Human), UniProt Q9UM73)
SRM = SRM (Homo sapiens (Human), UniProt Q9H3Y6)
QIK = QIK (Homo sapiens (Human), UniProt Q9H0K1)
MOS_Cascade = MOS_Cascade (Homo sapiens (Human), UniProt P00540)

Chain of PKCβ1 (P05771 whole entry): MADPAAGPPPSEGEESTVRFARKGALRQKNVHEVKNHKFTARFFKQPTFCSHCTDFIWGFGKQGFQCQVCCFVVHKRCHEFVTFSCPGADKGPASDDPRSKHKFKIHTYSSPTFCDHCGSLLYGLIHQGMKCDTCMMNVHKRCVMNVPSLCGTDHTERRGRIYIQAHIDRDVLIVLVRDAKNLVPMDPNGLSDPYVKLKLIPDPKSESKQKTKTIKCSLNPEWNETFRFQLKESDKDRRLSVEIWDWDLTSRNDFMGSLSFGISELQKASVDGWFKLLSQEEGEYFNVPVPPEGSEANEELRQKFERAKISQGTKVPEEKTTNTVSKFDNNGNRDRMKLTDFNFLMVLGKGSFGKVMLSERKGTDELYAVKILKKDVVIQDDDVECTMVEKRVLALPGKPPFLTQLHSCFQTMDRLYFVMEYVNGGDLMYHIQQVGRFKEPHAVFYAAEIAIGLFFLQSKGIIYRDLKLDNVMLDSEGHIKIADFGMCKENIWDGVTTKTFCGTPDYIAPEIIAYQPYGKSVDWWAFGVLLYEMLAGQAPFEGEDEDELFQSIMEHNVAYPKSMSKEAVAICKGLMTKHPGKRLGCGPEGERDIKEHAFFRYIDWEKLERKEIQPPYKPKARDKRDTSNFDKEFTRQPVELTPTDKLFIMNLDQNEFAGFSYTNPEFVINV

CCC1(c2ccccc2)C2=C(CC(C)(C)CC2=O)Nc2ncsc21 (stereo not shown) [Compound 1, 9-Ethyl-6,6-dimethyl-9-phenyl-5,6,7,9-tetrahydrothiazolo[4,5-b]quinolin-8(4H)-one]
inhibition at 10 µM (PKCβ1): -7.4% | inhibition at 10 µM (TAOK2): -5.9% | inhibition at 10 µM (MARK4): -15.7% | inhibition at 10 µM (RET(M918T)): 0.6% | inhibition at 10 µM (MAP2K3_Cascade): 2.9% | inhibition at 10 µM (SGK): -1.7% | inhibition at 10 µM (RET(S891A)): 1.4% | inhibition at 10 µM (EGFR(T790M/L858R)): -15.5% | inhibition at 10 µM (MER): 3.8% | inhibition at 10 µM (PIM2): 0.3% | inhibition at 10 µM (CaMK1δ): 1.3% | inhibition at 10 µM (FGFR3(K650M)): -4% | inhibition at 10 µM (FRK): 8.4% | inhibition at 10 µM (CaMK4): -5.4% | inhibition at 10 µM (SRC): -2.2% | inhibition at 10 µM (EPHA4): 0% | inhibition at 10 µM (FLT4): -0.2% | inhibition at 10 µM (PDGFRα(T674I)): 0.3% | inhibition at 10 µM (RSK4): -4.6% | inhibition at 10 µM (CDC2/CycB1): 22.7% | inhibition at 10 µM (PIM1): 0% | inhibition at 10 µM (MAP4K2): 1.1% | inhibition at 10 µM (EPHA2): -0.3% | inhibition at 10 µM (DYRK2): 4% | inhibition at 10 µM (AurA/TPX2): -2.7% | inhibition at 10 µM (WNK3): 0.3% | inhibition at 10 µM (TRKC): 0.4% | inhibition at 10 µM (MST4): -3.3% | inhibition at 10 µM (MAPKAPK 5): -8.5% | inhibition at 10 µM (EPHA3): 22.5% | inhibition at 10 µM (ITK): 0% | inhibition at 10 µM (JAK1): -6.4% | inhibition at 10 µM (MLK2_ Cascade): 16.1% | inhibition at 10 µM (WNK2): 0.5% | inhibition at 10 µM (BRSK2): -2.9% | inhibition at 10 µM (MAP2K4_Cascade): 3.7% | inhibition at 10 µM (EML4-ALK): 2.9% | inhibition at 10 µM (SRM): -15.1% | inhibition at 10 µM (QIK): 6.9% | inhibition at 10 µM (MOS_Cascade): 12.4%
